Results published in patent US20090181972A1, “Novel Inhibitors of Cysteine Proteases, the Pharmaceutical Compositions Thereof and their Therapeutic Applications” (priority 2005, published 2009).

Experiments:
[1] = tested on: HCT116 colon cancer cells; assay: HCT116 cell viability and proliferation assay (MTS); type: cell-based; conditions: Homo sapiens, HCT-116, 72 hours incubation, mean of three independent experiments, read-out: HCT116 GI50 D3
Description: HCT116 colon cancer cells were obtained from ATCC (American Type Culture Collection), and maintained in Mc Coy's 5A medium containing 10% FBS, 3 mM glutamine and 1% penicillin/streptomycin. Cells were incubated at 37° C. in a humidified atmosphere containing 5% CO2.
(§1) Cell viability was assayed using the MTS technique in 96-well culture plates (CellTiter 96® Aqueous Non-Radioactive Cell Proliferation Assay, Promega) according to the manufacturer's instructions. MTS (3-(4,5-dimethyl-thiazol-2-yl)-5-(3-carboxymethoxyphenyl)-2-(4-sulfophenyl)-2H-tetra-zolium) is a MTT-derived tetrazolium that is reduced in metabolically active cells into a soluble, cell-permeant formazan. The amount of formazan, detected by its absorbance at 492 nm is proportional to the number of living, metabolically active cells.
(§2) 10^3 HCT116 cells were seeded per well. 24 hours later, the medium was changed and the cells treated in triplicate with the following concentrations of each compound: 10 μM-3.33 μM-1.11 μM-370 nM-123 nM-41 nM-14 nM and 5 nM. The compounds were diluted in 100% DMSO, whose final concentration on cells was kept at 0.5%.
(§3) Cells were incubated with the compounds for 72 hours, and their viability then assayed by the addition of MTS for 2 hours. Absorbance at 492 nm was measured directly from the 96-well culture plates. G150 (Growth Inhibition 50) concentrations for each compound were calculated using a sigmoidal variable slope fit (Prism 4.0, Graphpad Softwares). Values represent mean of three independent experiments.

[2] = tested on: PC-3 prostate cancer cells; assay: PC3 cell viability and proliferation assay (MTS); type: cell-based; conditions: Homo sapiens, PC-3, 72 hours incubation, mean of three independent experiments, read-out: PC3 GI50 D3
Description: PC-3 prostate cancer cells were obtained from ATCC, and maintained in F-12K medium containing 7% FBS and 1% penicillin/streptomycin. Cells were incubated at 37° C. in a humidified atmosphere containing 5% CO2.
as §1, with “(3-(4,5-dimethyl-thiazol-2-yl)-5-(3-carboxymethoxyphenyl)-2-(4-sulfophenyl)-2H-tetrazolium)” for “(3-(4,5-dimethyl-thiazol-2-yl)-5-(3-carboxymethoxyphenyl)-2-(4-sulfophenyl)-2H-tetra-zolium)”
as §2, with “2×10^3 PC3” for “10^3 HCT116”
as §3, with “GI50” for “G150”

USP7 = target: T1, USP7 (Homo sapiens, UniProt Q93009); assay: USP7 activity assay; type: biochemical; conditions: 400 nM Ub-AMC, 152 pM enzyme; pre-incubated 30 minutes at 25° C., 60 minutes at 37° C.; sigmoidal fit; read-out: USP 7
T1 construct: His tag (pFastBac-HT vector) (N); made in house; host or cells: Sf9 or High Five insect cells (baculovirus)
From the text: The cDNA encoding USP7 was obtained by PCR amplification from placenta mRNA. USP7 cDNA was subcloned by PCR into a baculovirus expression vector (pFastBac-HT; Invitrogen). A cDNA encoding a mutated USP7 was generated by mutagenic PCR. The corresponding protein encodes a cysteine to alanine substitution at residue 223. The sequences were ascertained by sequencing of the entire open reading frame. Bacmids encoding USP7 were generated following DH10bac transposition. The corresponding bacmids were transfected into insect cells (Sf9). Viruses were recovered from culture supernatant and amplified twice. Insect cells (Sf9 or High Five; lnvitrogen) were infected for 72 hours. Total cell lysates were harvested and lyzed in lysis buffer (Tris HCl 50 mM pH 7.6; 0.75 % NP40; 500 mM NaCl; 10% glycerol; 1 mM DTT; 10 mM imidazole; Protease Inhibitor Cocktail; AEBSF 20 μg.ml^−1; Aprotinin 10 μg.ml^−1). Proteins were affinity purified on metal affinity resins (Talon Metal affinity resin; BD Biosciences). Bound materials were extensively washed in wash buffer (50 mM Sodium Phosphate pH 7.0; 300 mM NaCl; 10 mM imidazole; 0.5% Triton X-100; 10% glycerol) and eluted from the resin in 250 mM imidazole-containing wash buffer. Proteins were dialyzed in dialysis buffer (Tris HCl pH 7.6 20 mM; NaCl 200 mM; DTT 1 mM; EDTA 1 mM; 10% Glycerol). Proteins purifications were analyzed on 4-12% NuPAGE (Invitrogen).
USP7 was diluted in USP buffer (50 mM Tris HCl; 0.5 mM EDTA; 5 mM DTT; 0.01 % Triton X-100; Bovine Serum Albumin 0.05 mg.ml^−1 pH 7.6). Compounds stocks (100 mM) were stored at −20° C. in DMSO. Compounds were tested at the following final concentrations: 100 μM; 33.3 μM; 11.1 μM; 3.7 μM; 1.23 μM; 412 nM; 137 nM; 45.7 nM; 15.2 nM; 5 nM.
(§4) Reactions were performed as duplicates in Black LJL 96 well plates (HE microplates; Molecular Devices; 20 μl final reaction volume). The substrate concentration for USP7 was 400 nM Ub-AMC (Chem. Biol., 2003, 10, p. 837-846) (Boston Biochem). The concentrations of the enzyme (USP7) in specificity assays was 152 pM. The concentrations were determined in order to perform specificity assays under initial velocities at fixed substrate concentration. Compounds were pre-incubated with enzymes for 30 minutes at 25° C. Reactions were initiated by addition of substrate to the plates containing the enzymes (+/− compounds) diluted in assay buffer. Reactions were incubated for 60 minutes at 37° C. Reactions were stopped by adding acetic acid (100 mM final). Readings were performed on a Pherastar Fluorescent Reader (BMG). λ Emission 380 nm; λ Excitation=460 nm. Data (mean values +/− standard deviation) were analyzed as % of control (no compound) and plotted as percentage versus the Log of the compound concentration using GraphPad (Prism). Data were fitted to a sigmoidal model (variable slope).

USP5 = target: T2, USP5 (Homo sapiens, UniProt P45974); assay: USP5 activity assay; type: biochemical; conditions: 400 nM Ub-AMC, 300 pM enzyme; pre-incubated 30 minutes at 25° C., 60 minutes at 37° C.; sigmoidal fit; read-out: USP 5
T2 sequence (P45974 1-858): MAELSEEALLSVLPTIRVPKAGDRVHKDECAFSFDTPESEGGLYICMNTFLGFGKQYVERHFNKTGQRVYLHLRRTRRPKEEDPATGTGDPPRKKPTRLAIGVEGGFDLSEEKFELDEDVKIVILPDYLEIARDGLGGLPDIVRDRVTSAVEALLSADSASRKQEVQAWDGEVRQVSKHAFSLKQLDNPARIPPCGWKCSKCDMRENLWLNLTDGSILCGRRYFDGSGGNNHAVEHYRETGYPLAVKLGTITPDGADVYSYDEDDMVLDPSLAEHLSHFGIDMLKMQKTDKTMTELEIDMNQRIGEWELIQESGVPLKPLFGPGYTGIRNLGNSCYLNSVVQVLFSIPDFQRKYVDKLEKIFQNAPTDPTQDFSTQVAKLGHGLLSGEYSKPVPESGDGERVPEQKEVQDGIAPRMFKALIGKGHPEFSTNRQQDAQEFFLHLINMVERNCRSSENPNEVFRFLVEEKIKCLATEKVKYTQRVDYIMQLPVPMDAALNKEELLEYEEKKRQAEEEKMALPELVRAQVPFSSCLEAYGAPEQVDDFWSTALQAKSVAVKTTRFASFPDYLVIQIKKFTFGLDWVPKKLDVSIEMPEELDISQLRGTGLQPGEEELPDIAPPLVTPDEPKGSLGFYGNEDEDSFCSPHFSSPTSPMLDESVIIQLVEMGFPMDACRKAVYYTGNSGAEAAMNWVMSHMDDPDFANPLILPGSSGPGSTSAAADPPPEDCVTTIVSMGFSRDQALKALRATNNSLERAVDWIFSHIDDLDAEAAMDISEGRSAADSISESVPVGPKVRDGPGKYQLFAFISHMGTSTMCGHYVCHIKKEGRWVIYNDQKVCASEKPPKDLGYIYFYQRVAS
Description: USP5 was diluted in USP buffer (50 mM Tris HCl; 0.5 mM EDTA; 5 mM DTT; 0.01% Triton X-100; Bovine Serum Albumin 0.05 mg.ml^−1 pH 7.6). Compounds stocks (100 mM) were stored at -20° C. in DMSO.
as §4, with “USP5” for “USP7”, “Ub-AMC” for “Ub-AMC (Chem. Biol., 2003, 10, p. 837-846)”, “(USP5)” for “(USP7)”, “300” for “152”

T1 sequence (Q93009 whole entry): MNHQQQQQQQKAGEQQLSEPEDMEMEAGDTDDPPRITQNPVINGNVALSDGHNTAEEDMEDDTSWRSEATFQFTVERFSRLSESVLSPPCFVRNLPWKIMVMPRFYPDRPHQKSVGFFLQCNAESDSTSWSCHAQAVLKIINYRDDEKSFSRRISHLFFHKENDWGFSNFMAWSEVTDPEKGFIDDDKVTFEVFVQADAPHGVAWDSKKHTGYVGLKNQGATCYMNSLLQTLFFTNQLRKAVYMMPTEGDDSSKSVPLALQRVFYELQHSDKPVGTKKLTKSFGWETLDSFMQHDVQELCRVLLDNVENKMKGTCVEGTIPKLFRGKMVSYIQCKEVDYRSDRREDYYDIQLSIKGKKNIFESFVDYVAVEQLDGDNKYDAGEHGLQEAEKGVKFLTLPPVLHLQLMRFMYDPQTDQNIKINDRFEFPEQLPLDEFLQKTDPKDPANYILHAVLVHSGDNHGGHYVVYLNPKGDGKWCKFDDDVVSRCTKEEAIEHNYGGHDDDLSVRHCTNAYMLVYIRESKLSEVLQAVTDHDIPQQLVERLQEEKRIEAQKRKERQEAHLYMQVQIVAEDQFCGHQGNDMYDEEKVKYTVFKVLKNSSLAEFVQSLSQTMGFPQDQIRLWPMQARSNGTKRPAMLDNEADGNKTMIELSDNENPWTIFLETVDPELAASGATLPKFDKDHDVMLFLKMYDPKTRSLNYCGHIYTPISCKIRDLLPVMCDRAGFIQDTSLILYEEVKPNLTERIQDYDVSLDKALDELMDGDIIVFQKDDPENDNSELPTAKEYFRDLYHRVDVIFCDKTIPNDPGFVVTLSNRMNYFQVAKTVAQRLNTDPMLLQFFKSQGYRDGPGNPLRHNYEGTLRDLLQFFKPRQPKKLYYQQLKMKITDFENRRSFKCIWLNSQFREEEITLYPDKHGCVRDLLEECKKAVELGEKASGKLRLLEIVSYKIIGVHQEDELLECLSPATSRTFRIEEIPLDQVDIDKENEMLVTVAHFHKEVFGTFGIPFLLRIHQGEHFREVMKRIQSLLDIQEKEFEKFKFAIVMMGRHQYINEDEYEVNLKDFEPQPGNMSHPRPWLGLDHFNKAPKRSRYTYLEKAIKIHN

GI50 [1] [nM]	GI50 [2] [nM]	IC50 (USP7) [nM]	IC50 (USP5) [nM]	Compound
59	256			CCc1nnc2nc3c(nn12)-c1ccccc1C3=O [Example 1d/B, 3-Ethyl-1,2,3a,4,10-pentaaza-cyclopenta[b]fluoren-9-one]
84	334			Cc1nnc2nc3c(nn12)-c1ccccc1C3=O [Example 1b/B, 3-Methyl-1,2,3a,4,10-pentaaza-cyclopenta[b]fluoren-9-one]
67	175			CCCc1nnc2nc3c(nn12)-c1ccccc1C3=O [Example 1e/B, 3-Propyl-1,2,3a,4,10-pentaaza-cyclopenta[b]fluoren-9-one]
98	286			Cc1nnc2nc3c(nn12)-c1ccc(Cl)cc1C3=O [Example 3/B, 7-Chloro-3-methyl-1,2,3a,4,10-pentaaza-cyclopenta[b]fluoren-9-one]
53	162			CC(C)Cc1nnc2nc3c(nn12)-c1ccccc1C3=O [Example 1g/B, 3-Isobutyl-1,2,3a,4,10-pentaaza-cyclopenta[b]fluoren-9-one]
3100	4200	> 100000		CCCc1nnc2nc3c(nn12)C(=O)c1ccccc1-3 [Example 1e/A, 1-Propyl-2,3,4,10,10a-pentaaza-cyclopenta[b]fluoren-9-one]
40	96			CCCCc1nnc2nc3c(nn12)-c1ccccc1C3=O [Example 1f/B, 3-Butyl-1,2,3a,4,10-pentaaza-cyclopenta[b]fluoren-9-one]
1400	5400			CCc1nnc2nc3c(nn12)C(=O)c1ccccc1-3 [Example 1d/A, 1-Ethyl-2,3,4,10,10a-pentaaza-cyclopenta[b]fluoren-9-one]
1360	3800			CCCCc1nnc2nc3c(nn12)C(=O)c1ccccc1-3 [Example 1f/A, 1-Butyl-2,3,4,10,10a-pentaaza-cyclopenta[b]fluoren-9-one]
8500				Nc1nnc2nc3c(nn12)C(=O)c1ccccc1-3 [Example 1c/A, 1-Amino-2,3,4,10,10a-pentaaza-cyclopenta[b]fluoren-9-one]
65	238			COCc1nnc2nc3c(nn12)-c1ccccc1C3=O [Example 1i/B, 3-Methoxymethyl-1,2,3a,4,10-pentaaza-cyclopenta[b]fluoren-9-one]
323	1440			O=C1c2ccccc2-c2nn3c(CO)nnc3nc21 [Example 1h/B, 3-Hydroxymethyl-1,2,3a,4,10-pentaaza-cyclopenta[b]fluoren-9-one]
1280	1750	> 100000		COCc1nnc2nc3c(nn12)C(=O)c1ccccc1-3 [Example 1i/A, 1-Methoxymethyl-2,3,4,10,10a-pentaaza-cyclopenta[b]fluoren-9-one]
3000	4000	> 100000		CC(C)Cc1nnc2nc3c(nn12)C(=O)c1ccccc1-3 [Example 1g/A, 1-Isobutyl-2,3,4,10,10a-pentaaza-cyclopenta[b]fluoren-9-one]
			34800	O=C1c2ccccc2-c2nc3nnc(Cc4ccccc4)n3nc21 [Example 1k/A, 1-Benzyl-2,3,4,10,10a-pentaaza-cyclopenta[b]fluoren-9-one]
